Laboratory results taken from patent US20220280472A1, “TREATMENT OF PULMONARY FIBROSIS USING INHIBITORS OF NEU1 SIALIDASE” (University of Maryland, Baltimore, priority 2019, published 2022).
“Also recorded” adds a separate entry of the source.

Legend:
[1] = tested on: BALF cell sialidase activity; experiment: Total BALF cell sialidase activity after in vivo dosing; set-up: species or system mouse; conditions: 15 mg/kg ip, re-injected after 24 h, harvested 18 h later; vs saline
Protocol: (§1) Fluorometric Assay for Sialidase Activity: Lungs harvested from mice pretreated with one of three sialidase inhibitors or saline alone were weighed, homogenized, centrifuged, and the supernatants collected. These samples and SAECs, HPMECs, and NHLFs preincubated with increasing concentrations of the NEU1-selective NEU inhibitor, III-32B5 were suspended in 200μλ of 500 mM sodium acetate, pH 4.4 containing 0.1% Triton X-100, and a protease inhibitor mixture (Roche Applied Science), and then incubated for 1 h at 37° C. with 25 μl of 2.0 mM 2′-(4-methylumbelliferyl)-α-D-N-acetylneuraminic acid (4-MU-NANA), mixing the tubes every 15 min. The NEU reaction was terminated by addition of 133 mM glycine, pH 10.3, 60 mM NaCl, and 0,083 M […] after which the fluorescence intensity was measured with a Bio-Rad fluorometer (excitation at 355 nm; emission at 460 nm).
After 24 h, the mice were administered these same injections, and 18 h later, were euthanized and their BALFs and lungs harvested. The lungs were processed for total protein levels and total sialidase activity. […] The BALFs from these same mice were processed for cell counts and sialidase activity. […] These findings establish the ability of each of 2 NEU1-selective pharmacologic inhibitors to profoundly reduce total lung and BALF cell sialidase activity in vivo. The NEU1 inhibitor can comprise C1-methyl esters of the compounds.

[2] = tested on: HPMECs (human primary pulmonary microvascular endothelial cells); conditions: cited from earlier work
[3] = tested on: HLFs (human lung fibroblasts); conditions: cited from earlier work
[4] = tested on: bleomycin-challenged C57BL/6 mice; experiment: Bleomycin-induced pulmonary fibrosis model; type: in vivo, mouse; conditions: 15 mg/kg; FIG. 6A
[5] = tested on: SAECs (human primary small airway epithelial cells); conditions: cited from earlier work
[6] = tested on: NEUs 2-4; conditions: cited from earlier work
[7] = tested on: bleomycin-challenged C57BL/6 mice; experiment: Bleomycin-induced pulmonary fibrosis model; type: in vivo, mouse; conditions: for BALF total cell counts, lymphocytes, and neutrophils / lung collagen mRNA (collagen 1A2, collagen 3A1; qRT-PCR) / lung collagen protein (hydroxyproline-based QuickZyme assay): 15 mg/kg i.p. daily days 8-14, day 14, vs bleomycin alone; for total body weight: 15 mg/kg i.p. daily on days 8-14 after bleomycin, by day 14
Protocol: Wild-type female C57BL/6 mice aged 10-12 weeks and weighing 18-20 g (The Jackson Laboratory, Bar Harbor, Me.) were treated in accordance with a research protocol approved by the University of Maryland Institutional Animal Care and Use Committee. Animals were maintained in sterile microisolator cages with sterile rodent feed and water in the Baltimore VA Medical Center Research Animal Facility approved by the Association for Assessment and Accreditation of Laboratory Animal Care. To model pulmonary inflammation and fibrosis, a single dose of 0.075 U of bleomycin (BLM)(Sigma-Aldrich, St. Louis, Mo.) diluted in 50 μl of sterile phosphate-buffered saline (PBS) was intratracheally (i.t.) delivered to mouse lungs on day 0. Briefly, a minor anterior midline neck incision was made to reveal the trachea, and a MicroSprayer® (Penn-Century, Wyndmoor, Philadelphia, Pa.) was inserted i.t., and the bleomycin or sterile PBS alone instilled. Mice were serially weighed, and on days 8-14, daily administered intraperitoneally (i. p.) with 15 mg/kg of 2DN, or […], or III-32B5, or vehicle alone. On day 14, mice were euthanized by CO2 asphyxiation followed by cervical dislocation. Immediately postmortem, bronchoalveolar lavage fluid (BALF)s and lungs were harvested. BALF samples were collected and analyzed. Installation and withdrawal of 1 ml of PBS twice via an 18-gauge blunt-end needle secured in the trachea were performed in each animal The 2 aliquots of BALF were pooled, centrifuged, and total and differential cell counts performed. […] Total cellular RNA was extracted from murine lung tissue. RNA purity was established with the A260/A280 absorption ratio (>1.90). Total RNA (1.0 μg) was treated with DNase I (Invitrogen) for 15 min and reverse transcribed using avian myeloblastosis virus reverse transcriptase and poly(T) primer (Promega). The resulting cDNA was quantified by real time quantitative reverse transcription-polymerase chain reaction (qRT-PCR) using SYBR Green PCR Master Mix and ABI Prism 7900HT cycler. […] Measurement of Total Lung Collagen: Collagen content was measured in lung tissue based on detection of hydroxyproline, using the Total Collagen Assay kit from QuickZyme (Leiden, The Netherlands). Briefly, following hydrolysis of 50 mg lung tissue in […] of 6M HCl for 20 h at 95° C., the hydrolysate was diluted 10-fold with 4M HCl and measured against serial dilutions of collagen standard; the results were expressed as μg collagen per mg wet lung tissue. Mice challenged I.T. with bleomycin were serially weighed, and on days 8-14, daily administered i.p. 2DN or vehicle alone. On day 14, mice were sacrificed, and BALF and lungs harvested. The BALF was processed for total and differential cell counts, and lung tissues were collagenase-digested for lymphocyte counts and flow cytometry, processed for qRT-PCR for collagen mRNA expression, or homogenized for hydroxyproline-based assays to quantify collagen protein (FIG. 1C, 1D, 1E). In all bleomycin-challenged mice, total body weight decreased through days 1-7 (FIG. 1B). While the saline-injected, bleomycin-challenged mice continued to lose body weight through the 14-day study period, on days ≥9, the 2DN-treated, bleomycin-administered mice maintained and even increased body weight. […] On day 14, total and differential BALF cell counts were performed (FIG. 1C). In the PBS-injected, bleomycin-challenged mice, total cell counts, macrophages, lymphocytes, and neutrophils each were increased compared to BALF cell counts for the simultaneous saline controls. The addition of broad-spectrum NEU inhibition with 2DN reversed the increased in total cell counts, lymphocytes, and neutrophils, each compared to counts in the PBS-injected, bleomycin-challenged mice. In these same mice, lung homogenates were processed for qRT-PCR using primers for collagen 1A2 and collagen 3A1 to quantify their mRNA expression (FIG. 1D). […]

[8] = tested on: total lung sialidase (NEU) activity; experiment: Total sialidase (NEU) activity for 4-MU-NANA in mouse lung after in vivo dosing; set-up: lung sialidase activity: dose or concentration left out as unconfirmed; conditions: for total lung sialidase activity: 15 mg/kg ip, harvested 18 h later
Protocol: Wild-type female C57BL/6 mice aged 10-12 weeks and weighing 18-20 g (The Jackson Laboratory, Bar Harbor, Me.) were treated in accordance with a research protocol approved by the University of Maryland Institutional Animal Care and Use Committee. Animals were maintained in sterile microisolator cages with sterile rodent feed and water in the Baltimore VA Medical Center Research Animal Facility approved by the Association for Assessment and Accreditation of Laboratory Animal Care. To model pulmonary inflammation and fibrosis, a single dose of 0.075 U of bleomycin (BLM)(Sigma-Aldrich, St. Louis, Mo.) diluted in 50 μl of sterile phosphate-buffered saline (PBS) was intratracheally (i.t.) delivered to mouse lungs on day 0. Briefly, a minor anterior midline neck incision was made to reveal the trachea, and a MicroSprayer® (Penn-Century, Wyndmoor, Philadelphia, Pa.) was inserted i.t., and the bleomycin or sterile PBS alone instilled. […] On day 14, mice were euthanized by CO2 asphyxiation followed by cervical dislocation. Immediately postmortem, bronchoalveolar lavage fluid (BALF)s and lungs were harvested. BALF samples were collected and analyzed. Installation and withdrawal of 1 ml of PBS twice via an 18-gauge blunt-end needle secured in the trachea were performed in each animal The 2 aliquots of BALF were pooled, centrifuged, and total and differential cell counts performed. The lungs were processed for qRT-PCR, to measure levels for NEU 1-4, PPCA, collagen 1α2, and collagen 3α1transcripts, quantitative immunoblotting for NEU1-4 and PPCA proteins, and determination of hydroxyproline as a measure of total collagen. In selected experiments, lung tissue was processed for assays of total sialidase activity for fluorogenic substrate, 2′-(4-methylumbelliferyl)-α-D-N-acetylneuraminic acid (4-MU-NANA) and peanut agglutinin (PNA) lectin blotting as an indicator of desialylation.
as §1, with “nm). […]” for “nm).”

[9] = tested on: SAECs (human primary small airway epithelial cells); experiment: Fluorometric sialidase activity assay (4-MU-NANA) in SAECs; type: cell-based; conditions: increasing concentrations; 1.0×10^6 cells/reaction
Protocol: (§2) Human Lung Cell Cultures: Human primary small airway epithelial cell (SAEC)s isolated from the distal portion of the bronchioles and human primary pulmonary microvascular endothelial cell (HPMEC)s were purchased from Promocell (Heidelberg, Germany) SAECs were cultured in predefined small airway growth medium containing hydrocortisone, human epidermal growth factor, epinephrine, transferrin, insulin, retinoic acid, triiodothyronine, and fatty acid-free bovine serum albumin. Only SAEC passaged 2-4 were studied. HPMECs were cultured in endothelial cell growth medium (MV-2, PromoCell) containing growth medium supplement mix (PromoCell). Only HPMEC passages 4-7 were studied. Primary normal human lung fibroblast (NHLF)s were either isolated from normal lungs initially harvested from lung […] but ultimately not used in a study approved by the Institutional Review Board at the University of Maryland, or purchased from Lonza (Walkersville, Md.). […]
(§3) Fluorometric Assay for Sialidase Activity: Lungs harvested from mice pretreated with one of three sialidase inhibitors or saline alone were weighed, homogenized, centrifuged, and the supernatants collected. […] The NEU reaction was terminated by addition of 133 mM glycine, pH 10.3, 60 mM NaCl, and 0,083 M […] after which the fluorescence intensity was measured with a Bio-Rad fluorometer (excitation at 355 nm; emission at 460 nm). […]

[10] = tested on: HLFs (human lung fibroblasts); experiment: Fluorometric sialidase activity assay (4-MU-NANA) in HLFs; type: cell-based; conditions: increasing concentrations; 1.0×10^6 cells/reaction
Protocol: as §2, §3

[11] = tested on: HPMECs (human primary pulmonary microvascular endothelial cells); experiment: Fluorometric sialidase activity assay (4-MU-NANA) in HPMECs; type: cell-based; conditions: increasing concentrations; 1.0×10^6 cells/reaction
Protocol: as §2, §3

[12] = re-injected after 24 h, vs saline

Row | SMILES | total BALF cell sialidase activity [1] | sialidase activity in human lung microvascular endothelia, previously reported [2] | sialidase activity in human lung fibroblasts, previously reported [3] | lung collagen deposition [4] | sialidase activity in human airway epithelia, previously reported [5] | IC50 [6] [µM] | BALF total cell counts, lymphocytes, and neutrophils [7] | lung collagen mRNA (collagen 1A2, collagen 3A1; qRT-PCR) [7] | lung collagen protein (hydroxyproline-based QuickZyme assay) [7] | total body weight [7] | 14-day collagen deposition, mean value ([7]; mice receiving both BLM and C9-BADANA, BLM alone 13.4±2.1 μg/mg) [µg/mg] | lung sialidase activity [8] | total lung sialidase activity [8, 12] | sialidase activity in SAECs [9] | sialidase activity in HLFs [10] | sialidase activity in HPMECs [11] | reduction of total NEU activity in lung ([8]; 15 mg/kg i.p., re-injected after 24 h, lungs harvested 18 h later, vs saline)
1 | CCCCC(=O)NC[C@H](O)[C@H](O)[C@@H]1OC(C(=O)O)=C[C@H](O)[C@H]1NC(C)=O [C9-BADANA] | reduced | inhibition | inhibition | dramatically reduces | inhibition | > 1000 | reversed | protected against | protected against; also recorded: significantly decreased | returning to their pretreatment baselines; also recorded: counteracted | 8.6 ± 1.7 | dramatically reduces | reduced |  |  |  | 
2 | CCCCCC(=O)N[C@H]1[C@H]([C@@H](O)[C@@H](O)CNC(C)=O)OC(C(=O)O)=C[C@@H]1O [III-32B5, C5-hexanamido-C9-acetamido-DANA] | reduced |  |  |  |  |  | reversed | protected against | protected against; also recorded: significantly decreased | returning to their pretreatment baselines; also recorded: counteracted |  |  | reduced | dose-dependently inhibited | dose-dependently inhibited | dose-dependently inhibited | 
3 | CC(=O)N[C@H]1[C@H]([C@H](O)[C@H](O)CO)OC(C(=O)O)C[C@@H]1O (stereo partly drawn) [2DN, 2-deoxy-N-acetyneuraminic acid, reference compound] |  | inhibition | inhibition |  | inhibition |  | reversed | reduced | reversed | returned to their pretreatment baseline |  |  |  |  |  |  | at least 8 fold
